# Experimental data reported in ChEMBL document CHEMBL1158413, “Design, synthesis and evaluations of acridone derivatives using Candida albicans--search for MDR modulators led to the identification of an anti-candidiasis agent” (2009).
# Calls of active or inactive are those of the source. No cut-off for these calls is given here.
# Columns and labels:
# Candida albicans [1] = experiment: Antifungal activity against Candida albicans CAI4 at 6 ug/disk after 24 hrs by disk diffusion assay; assay type: functional; settings: CAI4, 24 h, read-out: DIZ
# DC3F/ADX [2] = experiment: Binding affinity to P-gp isolated from chinese hamster DC3F/ADX cells assessed as increase in ADP formation by drug-P-gp interaction assay relative to basal; assay type: cell-free; settings: Cricetulus griseus
# Candida albicans [3] = experiment: Antifungal activity against Candida albicans CAI4 after 48 hrs; assay type: functional; settings: CAI4, 48 h
# Candida albicans [4] = experiment: Antifungal activity against Candida albicans CAI4 at 0.2 mg/ml after 48 hrs by spot assay; assay type: functional, organism-based
# Candida albicans [5] = experiment: Antifungal activity against Candida albicans CAI4 at 0.5 mg/ml after 48 hrs by spot assay; assay type: functional, organism-based
# DC3F/ADX [6] = experiment: Binding affinity to P-gp isolated from chinese hamster DC3F/ADX cells assessed as increase in ADP formation at 0.05 uM by drug-P-gp interaction assay relative to basal; assay type: cell-free; settings: Cricetulus griseus
# Candida albicans [7] = experiment: Antifungal activity against Candida albicans CAI4 at 200 ug/disk after 24 hrs by disk diffusion assay; assay type: functional; settings: CAI4, 24 h, read-out: DIZ
# Candida albicans [8] = experiment: Antifungal activity against Candida albicans CAI4 at 0.313 mg/ml after 48 hrs by spot assay; assay type: functional, organism-based
# Candida albicans [9] = experiment: Inhibition of cell-wall integrity in Candida albicans CAI4 assessed as increase in Rhodamine-6G efflux at 230 ug/ml in absence of glucose; assay type: functional, organism-based
# Candida albicans [10] = experiment: Inhibition of cell-wall integrity in Candida albicans CAI4 assessed as increase in Rhodamine-6G influx at 230 ug/ml; assay type: functional, organism-based
# Candida albicans [11] = experiment: Antifungal activity against Candida albicans CAI4 at 160 ug/ml in presence of cell-wall toxin CFW; assay type: functional, organism-based
# Candida albicans [12] = experiment: Antifungal activity against Candida albicans CAI4 at 160 ug/ml in presence of cell-wall toxin CR; assay type: functional, organism-based
# Candida albicans [13] = experiment: Inhibition of cell-wall integrity in Candida albicans CAI4 assessed as ratio of glucose/ATP-driven Rhodamine-6G efflux to Rhodamine-6G efflux in absence of glucose/ATP at 230 ug/ml relative to control; assay type: functional, organism-based
compound,measurement,setting,value
Clc1ccc(COC(Cn2ccnc2)c2ccc(Cl)cc2Cl)c(Cl)c1 (configuration not stated) [MICONAZOLE],zone of inhibition at 6 µg/disc,Candida albicans [1],12 mm
Cc1cccc2c1c(=O)c1ccccc1n2CC(O)CN1CCC(N2CCCCC2)CC1 (configuration not stated),Activity,DC3F/ADX [2],Active
O=C(O)c1cccc2c(=O)c3ccccc3n(CC(O)CN3CCCCC3)c12 (configuration not stated),MIC80,Candida albicans [3],405 µg/mL
same,Activity,DC3F/ADX [2],Active
same,Activity,Candida albicans [4],inactive
same,Activity,Candida albicans [5],inactive
O=C(O)c1cccc2c(=O)c3ccccc3n(CC3CO3)c12 (configuration not stated),Activity,DC3F/ADX [2],Active
O=C(O)c1cccc2c(=O)c3ccccc3n(CC(O)CN3CCCC3)c12 (configuration not stated),Activity,DC3F/ADX [2],Active
Cc1cccc2c1c(=O)c1ccccc1n2CC(O)CN1CCOCC1 (configuration not stated),Activity,DC3F/ADX [2],Active
Cc1cccc2c1c(=O)c1ccccc1n2CC(O)CN1CCCCC1 (configuration not stated),Activity,DC3F/ADX [2],Active
O=C(O)c1cccc2c(=O)c3ccccc3n(CC(O)CN3CCOCC3)c12 (configuration not stated),MIC80,Candida albicans [3],132 µg/mL
same,Activity,DC3F/ADX [2],Active
same,Activity,Candida albicans [4],inactive
same,Activity,Candida albicans [5],inactive
O=C(O)c1cccc2c(=O)c3ccccc3n(CC(O)CN3CCC(N4CCCCC4)CC3)c12 (configuration not stated),MIC80,Candida albicans [3],234 µg/mL
same,Activity,DC3F/ADX [6],33%
same,Activity,DC3F/ADX [2],Active
same,zone of inhibition at 200 µg/disc,Candida albicans [7],10 mm
same,Activity,Candida albicans [8],Active
same,Activity,Candida albicans [9],Active
same,Activity,Candida albicans [10],Active
same,Activity,Candida albicans [11],Active
same,Activity,Candida albicans [12],Active
same,Activity,Candida albicans [13],inactive
Cc1cccc2c1c(=O)c1ccccc1n2CC(O)CN1CCCC1 (configuration not stated),Activity,DC3F/ADX [2],Active
OC(Cn1cncn1)(Cn1cncn1)c1ccc(F)cc1F [FLUCONAZOLE],zone of inhibition at 6 µg/disc,Candida albicans [1],15 mm
O=C(O)c1cccc2c(=O)c3ccccc3[nH]c12,Activity,DC3F/ADX [2],Active
